Results on eleven molecules are retold here after publication PMC10057332, “Anticancer and Targeting Activity of Phytopharmaceutical Structural Analogs of a Natural Peptide from Trichoderma longibrachiatum and Related Peptide-Decorated Gold Nanoparticles” (International Journal of Molecular Sciences, 2023).

Values joined by “and” are separate entries in the source; they are usually repeats but may differ in a detail not shown here. Equal values may be shown once. Residues, ends and D or L forms follow the SMILES beside them. A value given as a limit tells only on which side of the number the result lay.

For one data set, the system named is MDA-MB-231 cells. The experiment in a line: MTS cytotoxicity in MDA-MB-231 triple negative breast cancer cells. The settings on record: for IC50: cells exposed to peptaibols for 24 h, MTS assay; for killing activity in cancer cells: 10 µM peptide. The class given is cell-based, human. The protocol: (§1) Cells were incubated with increasing concentrations of peptides for 24 h before assessing cell viability with MTS assay in order to create dose/response curves (Figure 4) and calculate the half maximal inhibitory concentration (IC50) values for each peptaibol (Table 3). For convenience, peptides have been subdivided based on their C-terminal substituents, i.e., leucinol (lol) or amide (-NH2).
(§2) The cytotoxicity of peptides and free Api8- and Leu4-decorated GNPs was assessed with the MTS assay (CellTiter 96® AQueous One Solution Cell Proliferation Assay, Promega, Milan, Italy) in cancer MDA-MB-231 and normal MCF-10A cells exposed to increasing concentrations of peptaibols/GNPs for 24 h. Cells (8 × 10^3 cells/well for MDA-MB-231, 6 × 10^3 cells/well for MCF-10A) were seeded in 96-well plates, and after 24 h the medium was replaced with a fresh one containing peptaibols/GNPs. For MTS assay, the medium was replaced with 100 μL of serum-free medium and 20 μL of the CellTiter 96® reagent. After 60–90 min, the absorbance at 492 nm was measured with a Multiskan Go (Thermo Fischer Scientific, Carlsbad, CA, USA) plate reader and cell viability was expressed as a function of absorbance relative to that of control cells (considered as 100% viability). IC50 values for each peptaibol treatment were extrapolated from the relative dose–response curves obtained with the software GraphPad Prism 9.5.
A general note: Tetrazolium assays rely on reduction of a dye to a coloured formazan, in cell work by metabolically active cells.

A further data set deals with MCF-10A cells. The experiment in a line: MTS cytotoxicity in normal epithelial breast MCF-10A cells. The settings on record: for IC50: cells exposed to peptaibols for 24 h, MTS assay; for effect on viability of MCF-10A cells: peptide concentration range tested, 24 h, MTS. The class given is cell-based, human. How it is done: as §1, §2
For data set [1] the following is noted: MCF-10A cells, 1 h at 37 °C, CD at 25 °C.
Description: The CD profile of Api8-NH2 and Leu4-NH2 was also acquired in the presence of cells (cell line MCF-10A) (Figure 1). This study also provided information on the stability of the peptides in the biological environment [63].
Figure 1 CD profiles of Leu4-NH2 and Api8-NH2 acquired at 25 °C in the presence of MCF-10A epithelial breast cells. (Peptide concentrations: Api8, 5 × 10^−5 M; Leu4, 1 × 10^−5 M).
The CD spectra were obtained on a Jasco (Tokyo, Japan) J-1500 spectropolarimeter. Fused quartz cells (Hellma, Mühlheim, Germany) of 1 mm path length were used. The values are expressed in terms of [θ]T, total molar ellipticity (deg∙cm^2∙dmol^−1). […] The CD measurements in cells were performed as follows: 1 × 10^6 cells were harvested, washed twice in PBS and incubated in the same buffer with peptides (concentrations: Api8, 5 × 10^−5 M; Leu4, 1 × 10^−5 M) for 1 h at 37°C in a rotating mixer before recording the CD spectra.
The test system of data set [2] is MDA-MB-231 with respect to MCF-10A cells. The experiment in a line: Flow cytometry uptake of FITC-conjugated peptaibols. The class given is cell-based, human. The settings on record: highest concentration tested, 24 h incubation. How it is done: For this study, we decided to focus our attention on the unique, noncytotoxic, yet membrane-active peptides Leu4-NH2 and Api8-NH2 to study them as potential cancer-targeting agents. […] As reference, K6-NH2 internalization was measured as well, since for this specific peptide, previous studies already reported an increased uptake in tumor cells (HDLM-2 and A2780 tumor cell lines) with respect to normal healthy cells, such as peripheral blood mononuclear cells (PBMCs) or fibroblasts.
Figure 5 Flow cytometry measurements of FITC-conjugated peptaibols in MDA-MB-231 (a) and MCF-10 (b) cells after a 24 h incubation period.
Flow cytometry and peptides conjugated with FITC, namely Api8-FITC and Leu4-FITC, were used to assess the capacity of peptaibols to be internalized by breast cancer cells, Briefly, 8 × 10^4 MDA-MB-231 and MCF-10A cells/well were grown in 24-well plates for 24 h and then incubated for 24 h with 5 μM peptaibols. […] Those washings both before cell detachment from plates and after cell recovery and centrifugation removed any peptides not strongly associated with cell plasma membranes, assuring FITC signals measured by flow cytometry were referred exclusively to internalized peptides. Cells were centrifuged and resuspended in Versene before measuring FITC fluorescence using a BD Fortessa^TM X-20 flow cytometer (Becton Dickinson, San Jose, CA, USA). […]
In general terms: A flow cytometer gives signals particle by particle.

The IC50 is the concentration that inhibits the measured activity by half. High values mean weaker potency in that assay, low ones greater potency in that assay.

In the case of `CCCCCCCC(=O)NC(C)(C)C(=O)N[C@@H](CCCCN)C(=O)N[C@@H](CC(C)C)C(=O)NC(C)(C)C(=O)N[C@@H](CCCCN)C(=O)NCC(=O)N[C@@H](CC(C)C)C(=O)NC(C)(C)C(=O)N[C@@H](CCCCN)C(=O)N[C@H](C(=O)N[C@@H](CC(C)C)C(N)=O)[C@@H](C)CC` [K259-NH2, Oct-Aib^1-Lys-Leu-Aib^4-Lys-Gly-Leu-Aib^8-Lys-Ile-Leu^11-NH2] (HELM PEPTIDE1{[CCCCCCCC(=O)[*:2]].[Aib].K.L.[Aib].K.G.L.[Aib].K.I.L.[am]}$$$$V2.0), the IC50 with MDA-MB-231 cells is ~13 µM and 13 µM; in the data set with MCF-10A cells, 17 µM.

With `CCCCCCCC(=O)NC(C)(C)C(=O)NCC(=O)N[C@@H](CC(C)C)C(=O)N[C@@H](CC(C)C)C(=O)NCC(=O)NCC(=O)N[C@@H](CC(C)C)C(=O)NC(C)(C)C(=O)NCC(=O)N[C@H](C(=O)N[C@@H](CC(C)C)C(N)=O)[C@@H](C)CC` [Leu4-NH2, Oct-Aib^1-Gly-Leu-Leu^4-Gly-Gly-Leu-Aib^8-Gly-Ile-Leu^11-NH2] (HELM PEPTIDE1{[CCCCCCCC(=O)[*:2]].[Aib].G.L.L.G.G.L.[Aib].G.I.L.[am]}$$$$V2.0), the IC50 in the data set with MDA-MB-231 cells was over 20 µM. In the data set with MCF-10A cells, the IC50 is over 20 µM and the “effect on viability of MCF-10A cells” value is given as “did not significantly affect the viability”. The “stability in the presence of cells (CD)” value in data set [1] is reported as “stability of the peptides in the presence of cells”.

`CCCCCCCC(=O)NC(C)(C)C(=O)N[C@@H](CCCCN)C(=O)N[C@@H](CC(C)C)C(=O)NC(C)(C)C(=O)N[C@@H](CCCCN)C(=O)NCC(=O)N[C@@H](CC(C)C)C(=O)NC(C)(C)C(=O)N[C@@H](CCCCN)C(=O)N[C@H](C(=O)N[C@H](CO)CC(C)C)[C@@H](C)CC` [K259-Lol, Oct-Aib^1-Lys-Leu-Aib^4-Lys-Gly-Leu-Aib^8-Lys-Ile-Lol^11] (HELM PEPTIDE1{[CCCCCCCC(=O)[*:2]].[Aib].K.L.[Aib].K.G.L.[Aib].K.I.[CC(C)C[C@@H](CO)N[*:1]]}$$$$V2.0): the “killing activity in cancer cells” value with MDA-MB-231 cells (24 h, MTS) was about 60%. For the same molecule, the 50% inhibitory concentration (IC50) is 10 µM in the data set with MDA-MB-231 cells and 15 µM in the data set with MCF-10A cells.

In the case of “Oct-Aib^1-Gly-Leu-Aib^4-Gly-Gly-Leu-Api^8-Gly-Ile-Leu^11-NH-(CH2)2-NH-FITC [Api8-FITC]”, the “internalization in MDA-MB-231 with respect to MCF-10A cells” value in data set [2] is recorded as about 3 folds.

Take `CCCCCCCC(=O)NC(C)(C)C(=O)N[C@@H](CCCCN)C(=O)N[C@@H](CC(C)C)C(=O)NC(C)(C)C(=O)NCC(=O)NCC(=O)N[C@@H](CC(C)C)C(=O)NC(C)(C)C(=O)NCC(=O)N[C@H](C(=O)N[C@@H](CC(C)C)C(N)=O)[C@@H](C)CC` [K2-NH2, Oct-Aib^1-Lys-Leu-Aib^4-Gly-Gly-Leu-Aib^8-Gly-Ile-Leu^11-NH2] (HELM PEPTIDE1{[CCCCCCCC(=O)[*:2]].[Aib].K.L.[Aib].G.G.L.[Aib].G.I.L.[am]}$$$$V2.0): the “killing activity in cancer cells” value with MDA-MB-231 cells (24 h, MTS) is reported as “about 90%”. Also, the results for the 50% inhibitory concentration (IC50) in the data set with MDA-MB-231 cells and with MCF-10A cells were 9 µM and 17 µM, respectively.

For `CCCCCCCC(=O)NC(C)(C)C(=O)NCC(=O)N[C@@H](CC(C)C)C(=O)NC(C)(C)C(=O)NCC(=O)NCC(=O)N[C@@H](CC(C)C)C(=O)NC1(C(=O)NCC(=O)N[C@H](C(=O)N[C@@H](CC(C)C)C(N)=O)[C@@H](C)CC)CCNCC1` [Api8-NH2, Oct-Aib^1-Gly-Leu-Aib^4-Gly-Gly-Leu-Api^8-Gly-Ile-Leu^11-NH2] (HELM PEPTIDE1{[CCCCCCCC(=O)[*:2]].[Aib].G.L.[Aib].G.G.L.[O=C(C1(N[*:1])CCNCC1)[*:2]].G.I.L.[am]}$$$$V2.0), the half-maximal inhibitory concentration (IC50) in the data set on MDA-MB-231 cells was over 20 µM. Moreover, the “effect on viability of MDA-MB-231 cells” value in the data set on MDA-MB-231 cells (peptide concentration range tested, 24 h, MTS) is “did not significantly affect the viability”. Besides, in the data set with MCF-10A cells, the concentration for half-maximal inhibition (IC50) was over 20 µM and the “effect on viability of MCF-10A cells” value is “did not significantly affect the viability”. Moreover, the “stability in the presence of cells (CD)” value in data set [1] is given as “stability of the peptides in the presence of cells”.

As to `CCCCCCCC(=O)NC(C)(C)C(=O)N[C@@H](CCCCN)C(=O)N[C@@H](CC(C)C)C(=O)NC(C)(C)C(=O)N[C@@H](CCCCN)C(=O)NCC(=O)N[C@@H](CC(C)C)C(=O)NC(C)(C)C(=O)NCC(=O)N[C@H](C(=O)N[C@H](CO)CC(C)C)[C@@H](C)CC` [K25-Lol, Oct-Aib^1-Lys-Leu-Aib^4-Lys-Gly-Leu-Aib^8-Gly-Ile-Lol^11] (HELM PEPTIDE1{[CCCCCCCC(=O)[*:2]].[Aib].K.L.[Aib].K.G.L.[Aib].G.I.[CC(C)C[C@@H](CO)N[*:1]]}$$$$V2.0), the “killing activity in cancer cells” value in the data set on MDA-MB-231 cells (24 h, MTS) was about 60%. Further, the concentration for half-maximal inhibition (IC50) in the data set with MDA-MB-231 cells worked out at 9 µM; in the data set on MCF-10A cells it was 16 µM.

For `CCCCCCCC(=O)NC(C)(C)C(=O)N[C@@H](CCCCN)C(=O)N[C@@H](CC(C)C)C(=O)NC(C)(C)C(=O)N[C@@H](CCCCN)C(=O)N[C@@H](CCCCN)C(=O)N[C@@H](CC(C)C)C(=O)NC(C)(C)C(=O)N[C@@H](CCCCN)C(=O)N[C@H](C(=O)N[C@H](CO)CC(C)C)[C@@H](C)CC` [K2569-Lol, Oct-Aib^1-Lys-Leu-Aib^4-Lys-Lys-Leu-Aib^8-Lys-Ile-Lol^11] (HELM PEPTIDE1{[CCCCCCCC(=O)[*:2]].[Aib].K.L.[Aib].K.K.L.[Aib].K.I.[CC(C)C[C@@H](CO)N[*:1]]}$$$$V2.0), in the data set with MDA-MB-231 cells (24 h, MTS), the “killing activity in cancer cells” value is listed as about 30%. Further, the figures for the half-inhibitory concentration (IC50) with MDA-MB-231 cells and in the data set with MCF-10A cells were 12 µM and 14 µM, respectively.

Turning to `CCCCCCCC(=O)NC(C)(C)C(=O)NCC(=O)N[C@@H](CC(C)C)C(=O)NC(C)(C)C(=O)N[C@@H](CCCCN)C(=O)N[C@@H](CCCCN)C(=O)N[C@@H](CC(C)C)C(=O)NC(C)(C)C(=O)NCC(=O)N[C@H](C(=O)N[C@H](CO)CC(C)C)[C@@H](C)CC` [K56-Lol, Oct-Aib^1-Gly-Leu-Aib^4-Lys-Lys-Leu-Aib^8-Gly-Ile-Lol^11], the “killing activity in cancer cells” value in the data set with MDA-MB-231 cells (24 h, MTS) is recorded as about 20%. In addition, the values for the 50% inhibitory concentration (IC50) in the data set on MDA-MB-231 cells and in the data set with MCF-10A cells were 12 µM and 18 µM, respectively.

Regarding “Oct-Aib^1-Gly-Leu-Leu^4-Gly-Gly-Leu-Aib^8-Gly-Ile-Leu^11-NH-(CH2)2-NH-FITC [Leu4-FITC]”, in data set [2], the “internalization in MDA-MB-231 with respect to MCF-10A cells” value is recorded as “about 5 folds”.

Consider `CCCCCCCC(=O)NC(C)(C)C(=O)NCC(=O)N[C@@H](CC(C)C)C(=O)N[C@@H](CC(C)C)C(=O)NCC(=O)NCC(=O)N[C@@H](CC(C)C)C(=O)NC(C)(C)C(=O)NCC(=O)N[C@H](C(=O)N[C@H](CO)CC(C)C)[C@@H](C)CC` [Leu4-Lol, reference compound] (HELM PEPTIDE1{[CCCCCCCC(=O)[*:2]].[Aib].G.L.L.G.G.L.[Aib].G.I.[CC(C)C[C@@H](CO)N[*:1]]}$$$$V2.0), for which the IC50 in the data set on MDA-MB-231 cells and with MCF-10A cells was over 20 µM each time. Moreover, the “effect on viability of MCF-10A cells” value in the data set on MCF-10A cells is on record as “did not significantly affect the viability”.
